# Read-outs that look alike come from different tables or passages of the source.
# Test system: E. multilocularis metacestodes
# Assay: PGI-assay: drug-induced damage on in vitro cultured metacestodes (Pathogen Box screening cascade and EC50)
# Assay type: cell-based, Echinococcus multilocularis
# Details: for PGI release, % of the Tx-100 control, 5d / PGI release, % of the Tx-100 control, 12d / cytotoxicity at 10 µM: 10 µM, singlets; for PGI release, % of Tx-100 control, average, 5d / PGI release, % of Tx-100 control, average, 12d: confirmatory screening at 10 µM in triplicates, values as % of Tx-100 control; for cytotoxicity at 10 µM: Echinococcus multilocularis
# [1] = 120 h, 5 days of incubation, read-out: PGI release, % of the Tx-100 control, 5d
# [2] = 288 h, 12 days of incubation, read-out: PGI release, % of the Tx-100 control, 12d
Structure (SMILES),"PGI release, % of the Tx-100 control, 5d (5 days of incubation) [%]","PGI release, % of the Tx-100 control, 12d (12 days of incubation) [%]","PGI release, % of Tx-100 control, average, 5d (5 days of incubation) [%]","PGI release, % of Tx-100 control, average, 12d (12 days of incubation) [%]",cytotoxicity at 10 µM [1] [%],cytotoxicity at 10 µM [2] [%]
c1cc(C2=NCCN2)cc(-c2cc(-c3ccc(C4=NCCN4)cc3)no2)c1 [MMV688361],-0.63,-1.49,–,–,–,–
COc1cc(C2=NCCN2)cc2cc(-c3ccc(C4=NCCN4)cc3)oc12 [MMV688362],0.03,0.64,–,–,–,–
CC(C)(C)OC(=O)N1CCC(Cn2nc(-c3cnc4ccccc4c3)c3c(N)ncnc32)CC1 [MMV688364],0.11,-0.13,–,–,–,–
NCCN(C(=O)c1ccc(Cl)cc1Cl)c1ccc(OCc2ccc(Cl)cc2)cc1 [MMV688371],45.68,52.47,3.16,3.77,–,–
O=C(Nc1ccc(F)c(-c2nc3ncc(-c4ccccc4)cc3[nH]2)c1)N1CCCC1 [MMV688372],1.21,0.82,–,–,–,–
COc1cc(C2=NCCN2)ccc1-c1cn(-c2cccc(C3=NCCN3)c2)nn1 [MMV688407],1.48,1.29,–,–,–,–
CC1=Nc2ccc(Cl)cc2C(c2ccccc2)N1CCNC(=O)CN(C)C (stereo not drawn) [MMV688410],0.08,-1.09,–,–,–,–
Nc1ncnc2c1c(-c1cnc3ccccc3c1)nn2CC1CCNCC1 [MMV688411],-0.63,-1.19,–,–,–,–
CO[C@@H]1CN(c2ccc(C#CC3(O)CN4CCC3CC4)c(Cc3ccccc3)n2)C[C@H]1O (stereo partly drawn) [MMV688415],3.28,-0.74,–,–,–,–
CC(C)(C)OC(=O)N1CCN(c2nccc(-c3ccc(-c4ccc(Cl)cc4)s3)n2)CC1 [MMV688416],-0.30,-2.84,–,–,–,–
CC(C)n1nc(-c2cc3c(Cl)cccc3[nH]2)c2c(N)ncnc21 [MMV688417],-4.81,-2.43,–,–,–,–
Cn1ccnc1CNCCS(=O)(=O)c1cccc(Nc2ccc(-c3cccc(F)c3)cn2)c1 [MMV688466],-0.60,-2.11,–,–,–,–
CCCCN(CCCC)c1c(C#N)cc(S(=O)(=O)Nc2ccccc2)cc1C#N [MMV688467],17.50,35.72,4.92,11.29,–,–
Nc1ncnc2n[nH]c(Cc3cccc4ccccc34)c12 [MMV688469],-0.61,-1.22,–,–,–,–
CS(=O)(=O)N1CCC(CCn2nc(Cc3cccc4ccccc34)c3c(N)ncnc32)CC1 [MMV688470],1.33,2.31,–,–,–,–
CC(C(=O)Nc1ccc2oc(-c3ccncc3)nc2c1)c1ccccc1 (stereo not drawn) [MMV688471],-1.25,5.56,–,–,–,–
CC(Oc1cccc(Cl)c1)C(=O)Nc1ccc2oc(-c3ccncc3)nc2c1 (stereo not drawn) [MMV688472],-0.36,0.44,–,–,–,–
COc1cc(C2=NCCN2)ccc1-n1cc(-c2cccc(C3=NCCN3)c2)nn1 [MMV688474],-0.50,-0.97,–,–,–,–
CC(=O)NCC1CN(c2ccc(-c3ccc(CO)cc3)c(F)c2)C(=O)O1 (stereo not drawn) [MMV688508],-0.03,-1.49,–,–,–,–
O=C(OCc1ccccc1)N1CCC(c2cc(-c3ccncc3)c(-c3ccc(F)cc3)[nH]2)CC1 [MMV688509],0.97,2.28,–,–,–,–
N=C(N)c1ccc(-c2cc(-c3ccccc3)on2)cc1 [MMV688514],-2.10,0.39,–,–,–,–
CC(C)(C)C(=O)N(CCCCCCN1C[C@H](O)[C@@H](O)[C@H](O)[C@H]1CO)C1CCCCCC1 [MMV688543],-1.12,-4.43,–,–,–,–
COc1ccc(C2=NCCN2)cc1-c1cn(-c2cccc(C3=NCCN3)c2)nn1 [MMV688547],-0.44,-1.41,–,–,–,–
CC(C)(C)n1nc(-c2ccccc2)c2c(N)ncnc21 [MMV688548],-2.51,1.17,–,–,–,–
CCc1ccccc1-n1c(C)cn2c3c(=O)n(C(C(=O)OC)C(C)C)c(=O)n(C)c3nc12 (stereo not drawn) [MMV688550],-2.01,-6.25,–,–,–,–
Cc1nn(C(=O)Nc2cccc(C(F)(F)F)c2)c(C)c1Sc1ncccn1 [MMV688552],0.35,1.89,–,–,–,–

Structure (SMILES),"PGI release, % of the Tx-100 control, 5d (5 days of incubation) [%]","PGI release, % of the Tx-100 control, 12d (12 days of incubation) [%]","PGI release, % of Tx-100 control, average, 5d (5 days of incubation) [%]","PGI release, % of Tx-100 control, average, 12d (12 days of incubation) [%]",cytotoxicity at 10 µM [1] [%],cytotoxicity at 10 µM [2] [%]
O=C(NCc1ccoc1)N1CCN(Cc2ccc3c(c2)OCO3)CC1 [MMV688553],0.80,-2.91,–,–,–,–
CNc1snc(C)c1C(=O)NCCOc1ccc(OC)cc1 [MMV688554],-1.97,1.18,–,–,–,–
O=C(NCc1ccco1)N1CCN(Cc2ccc(Cl)s2)CC1 [MMV688555],1.40,3.17,–,–,–,–
NCC(c1cccs1)S(=O)(=O)c1ccccc1 (stereo not drawn) [MMV688557],0.26,-2.41,–,–,–,–
CN1CCC(c2cc(-c3ccncc3)c(-c3ccc(F)cc3)[nH]2)CC1 [MMV688703],0.17,-2.29,–,–,–,–
Cc1cc2nc(NC(=O)C(C)(C)C)nc(Cl)c2n1Cc1ccc(Cl)cc1 [MMV688704],5.09,-0.53,–,–,–,–
"CON=C(C(=O)OC)c1ccccc1CON=C(C)c1cccc(C(F)(F)F)c1 [MMV688754, Trifloxystrobin]",–,–,–,–,-1.92,-5.74
"O=[N+]([O-])c1cn2c(n1)OC[C@@H](OCc1ccc(OC(F)(F)F)cc1)C2 [MMV688755, Pretomanid, reference compound]",–,–,–,–,-0.93,-1.01
"CC(=O)NC[C@H]1CN(c2ccc(N3CCSCC3)c(F)c2)C(=O)O1 [MMV688756, Sutezolid, reference compound]",–,–,–,–,-3.45,-0.37
CS(=O)(=O)c1ccc(C(=O)N(CC2CCCO2)c2nc3ccccc3s2)cc1[N+](=O)[O-] (stereo not drawn) [MMV688761],1.26,0.42,–,–,–,–
c1ccc(-c2[nH]c3ccccc3c2C(c2ccccn2)N2CCCC2)cc1 (stereo not drawn) [MMV688762],0.82,0.77,–,–,–,–
CNc1nnc(Sc2cnn(-c3ccccc3)c(=O)c2Cl)s1 [MMV688763],6.98,14.69,–,–,–,–
COc1ccc(-c2onc(C(F)(F)F)c2-c2ccc(Cl)cc2)c(O)c1 [MMV688766],7.61,28.52,1.11,0.26,–,–
Cc1[nH]c2ccccc2c1C(c1cccs1)N1CCN(C)CC1 (stereo not drawn) [MMV688768],19.18,27.24,5.02,7.48,–,–
Cc1ccccc1C(=O)N1NC(=Nc2ccccc2)SC1(C)C [MMV688771],-0.49,-1.69,–,–,–,–
"O=C(Cn1ccnc1[N+](=O)[O-])NCc1ccccc1 [MMV688773, Benznidazole, reference compound]",–,–,–,–,-0.2,1.37
"CC[C@@H]([C@H](C)O)n1ncn(-c2ccc(N3CCN(c4ccc(OC[C@@H]5CO[C@@](Cn6cncn6)(c6ccc(F)cc6F)C5)cc4)CC3)cc2)c1=O [MMV688774, Posaconazole, reference compound]",–,–,–,–,-0.69,-1.09
Cc1cccnc1NC(=O)c1cccc(OCc2c(C)noc2C)c1 [MMV688793],-3.90,-0.61,–,–,–,–
O=C(NCCc1ccn(-c2ccccc2)n1)C1CCCCC1 [MMV688795],0.14,-0.21,–,–,–,–
O=C(NCc1nnc2n1CCCCC2)c1ccc(-c2ccc(F)cc2)o1 [MMV688796],-0.28,-3.38,–,–,–,–
CC1CCCCN1C(=O)NCCc1coc(-c2ccc(F)cc2)n1 (stereo not drawn) [MMV688797],-3.70,-1.62,–,–,–,–
CS(=O)(=O)c1ccccc1C(=O)N(Cc1ccccc1)c1ccccc1 [MMV688798],13.11,63.28,-0.92,-1.65,–,–
COc1ccc2nccc(NC(=O)C3CCN(CCc4ccc(Cl)cc4)CC3)c2n1 [MMV688844],-0.25,-3.99,–,–,–,–
O=C(N[C@H](Cc1ccccc1)C(=O)Nc1ccccc1N1CCOCC1)c1cccs1 [MMV688845],0.55,0.28,–,–,–,–
Cc1ccccc1CN1CCC(O)(c2ccc(Cl)c(C(F)(F)F)c2)CC1 [MMV688846],6.92,5.57,–,–,–,–
CC(C)(C)n1nc(Cc2ccc(F)c(Cl)c2)c2c(N)ncnc21 [MMV688852],6.41,7.25,–,–,–,–

# Source: article PMC6216040, “Repurposing of an old drug: In vitro and in vivo efficacies of buparvaquone against Echinococcus multilocularis” (International Journal for Parasitology: Drugs and Drug …, 2018)
